Laboratory results reported in PubChem BioAssay (NCI).
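Test compounds were applied to cells in 96-well plates for 48 hours at 5 doses. Definition used: TGI = concentration required for complete inhibition of growth.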

Key:
Assay in all cases: DTP human tumour cell line panel, 48 h
HT29 colon = test system: HT29 colon
OVCAR-5 ovarian = test system: OVCAR-5 ovarian
OVCAR-3 ovarian = test system: OVCAR-3 ovarian
SK-MEL-5 melanoma = test system: SK-MEL-5 melanoma
HCT-116 colon = test system: HCT-116 colon
786-0 renal = test system: 786-0 renal
NCI-H460 lung = test system: NCI-H460 lung
UACC-257 melanoma = test system: UACC-257 melanoma
SK-MEL-28 melanoma = test system: SK-MEL-28 melanoma
KM12 colon = test system: KM12 colon
U251 CNS = test system: U251 CNS
NCI-H522 lung = test system: NCI-H522 lung
CAKI-1 renal = test system: CAKI-1 renal
SF-268 CNS = test system: SF-268 CNS
KM20L2 colon = test system: KM20L2 colon
SR leukemia = test system: SR leukemia
SN12C renal = test system: SN12C renal
LXFL 529 NSCLC = test system: LXFL 529 NSCLC
M14 melanoma = test system: M14 melanoma
MALME-3M melanoma = test system: MALME-3M melanoma
SW-620 colon = test system: SW-620 colon
HCC-2998 colon = test system: HCC-2998 colon
SK-MEL-2 melanoma = test system: SK-MEL-2 melanoma
LOX IMVI melanoma = test system: LOX IMVI melanoma
HOP-62 NSCLC = test system: HOP-62 NSCLC
NCI-H226 lung = test system: NCI-H226 lung
UO-31 renal = test system: UO-31 renal
ACHN renal = test system: ACHN renal
DLD-1 colon = test system: DLD-1 colon
DMS 114 small cell lung = test system: DMS 114 small cell lung
RPMI-8226 leukemia = test system: RPMI-8226 leukemia
RXF 393 renal = test system: RXF 393 renal
SK-OV-3 ovarian = test system: SK-OV-3 ovarian
MOLT-4 leukemia = test system: MOLT-4 leukemia
A498 renal = test system: A498 renal
SNB-19 CNS = test system: SNB-19 CNS
M19-MEL melanoma = test system: M19-MEL melanoma
SNB-75 CNS = test system: SNB-75 CNS
SF-295 CNS = test system: SF-295 CNS
HCT-15 colon = test system: HCT-15 colon
K-562 leukemia = test system: K-562 leukemia
SF-539 CNS = test system: SF-539 CNS
OVCAR-8 ovarian = test system: OVCAR-8 ovarian
OVCAR-4 ovarian = test system: OVCAR-4 ovarian
DMS 273 small cell lung = test system: DMS 273 small cell lung
A549 NSCLC = test system: A549 NSCLC
UACC-62 melanoma = test system: UACC-62 melanoma
HL-60(TB) leukemia = test system: HL-60(TB) leukemia
IGROV1 ovarian = test system: IGROV1 ovarian
MDA-MB-435 = test system: MDA-MB-435
CCRF-CEM leukemia = test system: CCRF-CEM leukemia
COLO 205 colon = test system: COLO 205 colon
DU-145 prostate = test system: DU-145 prostate
MDA-MB-231 breast = test system: MDA-MB-231 breast
HS 578T breast = test system: HS 578T breast
EKVX NSCLC = test system: EKVX NSCLC
PC-3 prostate = test system: PC-3 prostate
BT-549 breast = test system: BT-549 breast
NCI-H23 lung = test system: NCI-H23 lung
HOP-92 NSCLC = test system: HOP-92 NSCLC
T-47D breast = test system: T-47D breast
TK-10 renal = test system: TK-10 renal
MCF7 breast = test system: MCF7 breast
NCI/ADR-RES ovarian = test system: NCI/ADR-RES ovarian
MDA-N = test system: MDA-N

Measured: TGI

Cc1[nH]c(=O)[nH]c1C(=O)c1ccc(-n2ccnc2)cc1
not listed: MDA-MB-435 | CCRF-CEM leukemia | COLO 205 colon | DU-145 prostate | MDA-MB-231 breast | HS 578T breast | EKVX NSCLC | PC-3 prostate | BT-549 breast | NCI-H23 lung | HOP-92 NSCLC | T-47D breast | TK-10 renal | MCF7 breast | NCI/ADR-RES ovarian | MDA-N
> 100 µM: all other assays above

CN(Cc1cc(Br)cc(Br)c1O)Cc1c(O)ccc2ccccc12
49 µM: BT-549 breast
33.1 µM: SK-MEL-5 melanoma
40.9 µM: A549 NSCLC
40.6 µM: HCT-116 colon | DU-145 prostate
77.2 µM: HS 578T breast
41.3 µM: UACC-62 melanoma
30 µM: MOLT-4 leukemia
43.8 µM: T-47D breast
40.3 µM: MDA-MB-435
41.5 µM: M14 melanoma
58.3 µM: MCF7 breast
35.6 µM: MDA-MB-231 breast | SK-MEL-2 melanoma | SF-539 CNS
60 µM: OVCAR-8 ovarian
46.1 µM: HL-60(TB) leukemia
74.5 µM: NCI-H522 lung | SF-268 CNS
60.6 µM: CCRF-CEM leukemia
52 µM: SK-OV-3 ovarian
> 100 µM: SW-620 colon | RPMI-8226 leukemia | HCT-15 colon | NCI/ADR-RES ovarian
31.8 µM: OVCAR-3 ovarian
41 µM: U251 CNS
50.6 µM: NCI-H23 lung
41.7 µM: ACHN renal
36.4 µM: TK-10 renal
32 µM: SN12C renal
38.9 µM: HOP-62 NSCLC | SNB-19 CNS
34.9 µM: OVCAR-4 ovarian
36.7 µM: COLO 205 colon
40.5 µM: NCI-H226 lung
44.2 µM: SK-MEL-28 melanoma
39.4 µM: HOP-92 NSCLC
47.5 µM: SF-295 CNS
42.5 µM: LOX IMVI melanoma
39.1 µM: SNB-75 CNS
37.9 µM: HCC-2998 colon
38.8 µM: RXF 393 renal
37.1 µM: OVCAR-5 ovarian
37.5 µM: UACC-257 melanoma
55.6 µM: SR leukemia
51.9 µM: K-562 leukemia
39.9 µM: MDA-N
31.5 µM: CAKI-1 renal
35.8 µM: EKVX NSCLC
36.2 µM: 786-0 renal | A498 renal
44.6 µM: IGROV1 ovarian
33.5 µM: KM12 colon | PC-3 prostate
42.9 µM: MALME-3M melanoma
30.9 µM: UO-31 renal
37.8 µM: HT29 colon
54.2 µM: NCI-H460 lung

CCN(CC)C1C(=O)NC1C#Cc1ccccc1 (stereo not given)
92.1 µM: HOP-92 NSCLC
not listed: KM20L2 colon | LXFL 529 NSCLC | DLD-1 colon | DMS 114 small cell lung | MOLT-4 leukemia | M19-MEL melanoma | DMS 273 small cell lung | A549 NSCLC
> 100 µM: all other assays above
